Molecular target: human CCR2 (Homo sapiens, UniProt P41597)
Assay: CCR2 functional calcium assay (FLIPR calcium flux, hMCP-1 challenge)
Type: cell-based
Design: expressed in transfected cells; host or cells: HEK293 EBNA cells
Conditions: HEK293 EBNA cells transfected with human CCR2, hMCP-1 challenge; read-out: Functional CCR2 fKi
Excerpt: The CCR2 receptor couples through the Gi/Gq signaling pathway and results in activation of calcium mobilization. The functional activity of test compounds was routinely tested by measuring the ability of compounds to antagonize CCR2 activity in a dose dependent manner, in HEK293 EBNA cells transfected with the human CCR2 receptor (hMCP-1 challenge), using a calcium flux Fluorescent Imaging Plate Reader FLIPR assay. Non-transfected HEK293 EBNA cells were used as control of non-specific response.
Briefly, test compounds were dissolved in dimethyl sulfoxide (DMSO) to a concentration of 10 mM and stored in matrix screenmate racks. The required amount of compound was transferred to 96-well compound plates on the day of assay and diluted in assay buffer to the required final concentration; dose-response measurements were assayed by making 1:3 serial dilutions to produce 10 point curves. The compounds were then transferred to 384-well assay plates ready for use. Top concentrations were adjusted depending on the potency of the compounds with a typical concentration range of 30 μM to 0.5 nM being used. The assay buffer used was HBSS buffer supplemented with 20 mM HEPES and 0.1% BSA, pH7.4. The loading/wash buffers were the same as the assay buffer.
Cells were suspended in culture medium at a density of 10000 cells/50 μl (the cell culture media composition was DMEM high glucose supplemented with 10% dialyzed FBS, 250 μg/ml Geneticin, and 400 μg/ml Hygromycin B), transferred to 384-well black/clear Costar plates (Costar #3712) (50 μl/well) and incubated at 37° C., in a 5% CO2/95% air humidified incubator for 16 h. The cells were washed with assay buffer at 37° C. using the Biotek ELx 405, washing 3 times, leaving 20 μl buffer in the well. 20 μl Fluo-4 (Fluo-4 stock solution (1 mM) was prepared by dissolving one vial of Fluo-4 (50 μg) in 45 μl of pluronic acid (240 mg/ml in DMSO). This stock solution of Fluo-4 was then diluted 250 times with loading buffer to give a Fluo-4 concentration of 4 μM. The dye solution (used within 2 h and kept away from light) was added to each well using a repeating multichannel pipette; the cells were then incubated at 37° C. for 60 min. Following the incubation, cells were washed in assay buffer at 37° C. using the Biotek ELx 405, washing 3 times, leaving 40 μl in each well and incubated for 10 min at 37° C. before use. A combined agonist/antagonist protocol was used. Compound (antagonist) was added to the cell plate using the FLIPR. Basal fluorescence was recorded every second for 10 seconds prior to compound addition (10 μl) and fluorescence recorded every second for 1 minute then every 6 seconds for a further 1 minute. Agonist (MCP-1) was then added using the FLIPR and fluorescence recorded as described above.
The positive control (agonist) was human recombinant MCP-1 which was stored as a stock concentration of 10 μM in distilled water and stored at −20° C. (maximal response: 30 nM; EC50 dose: 3-5 nM). The reference compound (antagonist) was RS102895 which was used as a 10 mM DMSO solution and stored at −20° C.
FLIPR responses were measured as peak minus basal fluorescence intensity and were expressed as a percentage of EC50 MCP-1 challenge. Curve-fitting and parameter estimation were carried out using GraphPad Prism 4.0 (GraphPad Software Inc., San Diego, Calif.).

Chain of human CCR2 (P41597 whole entry): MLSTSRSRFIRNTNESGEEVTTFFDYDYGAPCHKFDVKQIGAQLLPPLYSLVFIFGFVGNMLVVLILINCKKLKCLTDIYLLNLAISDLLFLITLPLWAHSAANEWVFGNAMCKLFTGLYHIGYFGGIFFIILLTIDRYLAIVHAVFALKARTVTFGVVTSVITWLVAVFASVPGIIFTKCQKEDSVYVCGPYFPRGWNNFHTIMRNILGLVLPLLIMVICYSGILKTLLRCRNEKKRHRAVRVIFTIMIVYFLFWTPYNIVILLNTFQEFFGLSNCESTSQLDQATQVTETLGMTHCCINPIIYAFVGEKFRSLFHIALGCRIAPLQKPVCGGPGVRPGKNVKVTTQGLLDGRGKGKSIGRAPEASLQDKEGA

SMILES | Ki [nM]
COCCNC(=O)c1cnn2c(O)c(Cc3ccc(Cl)cc3)c(C)nc12 [Example 107, 6-[(4-Chlorophenyl)methyl]-7-hydroxy-N-(2-methoxyethyl)-5-methylpyrazolo[1,5-a]-pyrimidine-3-carboxamide] | 10 to 100
CC(C)(O)c1nc2ccnn2c(O)c1Cc1cccc(F)c1 [Example 93, 6-[(3-Fluorophenyl)methyl]-5-(2-hydroxypropan-2-yl)pyrazolo[1,5-a]pyrimidin-7-ol] | 100 to 1000
COC(=O)c1nc2ccnn2c(O)c1Cc1cccc(F)c1 [Example 69, Methyl 6-[(3-fluorophenyl)methyl]-7-hydroxypyrazolo[1,5-a]pyrimidine-5-carboxylate] | 10 to 100
COCc1nc2ccnn2c(O)c1Cc1ccc(Cl)c(F)c1 [Example 52, 6-[(4-Choro-3-fluorophenyl)methyl]-5-(methoxymethyl)pyrazolo[1,5-a]pyrimidin-7-ol] | 10 to 100
CCOC(=O)c1nc2ccnn2c(O)c1Cc1cccc(C(F)(F)F)c1 [Example 71, Ethyl 7-hydroxy-6-{[3-(trifluoromethyl)-phenyl]methyl}pyrazolo[1,5-a]pyrimidine-5-carboxylate] | 10 to 100
Cc1nc2c(Br)cnn2c(O)c1Cc1ccc(Cl)cc1 [Example 58, 3-Bromo-6-[(4-chlorophenyl)methyl]-5-methylpyrazolo[1,5-a]pyrimidin-7-ol] | 10 to 100
Cc1nc2c(C(=O)N(C)CCC#N)cnn2c(O)c1Cc1ccc(Cl)cc1 [Example 109, 6-[(4-Chlorophenyl)methyl]-N-(2-cyanoethyl)-7-hydroxy-N,5-dimethylpyrazolo[1,5-a] pyrimidine-3-carboxamide] | 100 to 1000
Cc1nc2c(C)cnn2c(O)c1Cc1ccc(Cl)cc1 [Example 57, 6-[(4-Chlorophenyl)methyl]-3,5-dimethyl-pyrazolo[1,5-a]pyrimidin-7-ol] | 100 to 1000
Oc1c(Cc2ccccc2)c(C2CC2)nc2ccnn12 [Example 18, 6-Benzyl-5-cyclopropylpyrazolo[1,5-a]-pyrimidin-7-ol] | < 10
Oc1c(Cc2cc(F)c(F)c(F)c2)c(C2CC2)nc2ccnn12 [Example 26, 5-Cyclopropyl-6-[(3,4,5-trifluorophenyl)-methyl]pyrazolo[1,5-a]pyrimidin-7-ol] | < 10
Cc1nc2ccnn2c(O)c1Nc1cccc(F)c1 [Example 78, 6-[(3-Fluorophenyl)amino]-5-methylpyrazolo[1,5-a]pyrimidin-7-ol] | 100 to 1000
CCc1nc2c(C(=O)NCCOC)cnn2c(O)c1Cc1ccc(Cl)cc1 [Example 117, 6-[(4-Chlorophenyl)methyl]-5-ethyl-7-hydroxy-N-(2-methoxyethyl)pyrazolo-[1,5-a]pyrimidine-3-carboxamide] | 10 to 100
Oc1c(Cc2ccc(F)c(Cl)c2)c(C2CC2)nc2ccnn12 [Example 28, 6-[(3-Chloro-4-fluorophenyl)methyl]-5-cyclopropylpyrazolo[1,5-a]pyrimidin-7-ol] | < 10
COCCNC(=O)c1cnn2c(O)c(Cc3ccc(Cl)c(Cl)c3)c(C)nc12 [Example 115, 6-[(3,4-Dichlorophenyl)methyl]-7-hydroxy-N-(2-methoxyethyl)-5-methylpyrazolo-[1,5-a] pyrimidine-3-carboxamide] | 10 to 100
Cc1noc(-c2nc3ccnn3c(O)c2Cc2cccc(F)c2)n1 [Example 92, 6-[(3-Fluorophenyl)methyl]-5-(3-methyl-1,2,4-oxadiazol-5-yl)pyrazolo[1,5-a]pyrimidin-7-ol] | 100 to 1000
Cc1nc2c(C(=O)NCCc3ccccc3)cnn2c(O)c1Cc1ccc(Cl)cc1 [Example 105, 6-[(4-Chlorophenyl)methyl]-7-hydroxy-5-methyl-N-(2-phenylethyl)pyrazolo[1,5-a]pyrimidine-3-carboxamide] | 100 to 1000
CC(C)OC(=O)c1nc2ccnn2c(O)c1Cc1cccc(C(F)(F)F)c1 [Example 86, Propan-2-yl7-hydroxy-6-{[3-(trifluoromethyl)phenyl]methyl}pyrazolo[1,5-a]pyrimidine-5-carboxylate] | 10 to 100

SMILES | Ki [nM]
Cc1nc2c(C(=O)N3CCN(C)CC3)cnn2c(O)c1Cc1ccc(Cl)cc1 [Example 104, 6-[(4-Chlorophenyl)methyl]-5-methyl-3-[(4-methylpiperazin-1-yl)carbonyl]pyrazolo [1,5-a]pyrimidin-7-ol] | 100 to 1000
Cc1nc2c(C(=O)NC[C@H]3CCCO3)cnn2c(O)c1Cc1ccc(Cl)cc1 [Example 101, 6-[(4-Chlorophenyl)methyl]-7-hydroxy-5-methyl-N-[(2R)-oxolan-2-ylmethyl]-pyrazolo[1,5-a]pyrimidine-3-carboxamide] | 100 to 1000
CC(C)c1nc2ccnn2c(O)c1Oc1ccc(Br)cc1 [Example 66, 6-(4-Bromophenoxy)-5-(propan-2-yl)-pyrazolo[1,5-a]pyrimidin-7-ol] | < 10
Oc1c(Cc2ccc(Cl)cc2)c(CN2CCOCC2)nc2ccnn12 [Example 91, 6-[(4-Chlorophenyl)methyl]-5-(morpholin-4-ylmethyl)pyrazolo[1,5-a]pyrimidin-7-ol] | 100 to 1000
CC(=O)c1nc2ccnn2c(O)c1Cc1ccc(Cl)c(Cl)c1 [Example 96, 1-{6-[(3,4-Dichlorophenyl)methyl]-7-hydroxypyrazolo[1,5-a]pyrimidin-5-yl}ethan-1-one] | 10 to 100
CC(C)c1nc2ccnn2c(O)c1Cc1cc(F)c(F)c(F)c1 [Example 36, 5-(Propan-2-yl)-6-[(3,4,5-trifluorophenyl)-methyl]pyrazolo[1,5-a]pyrimidin-7-ol] | < 10
Cc1nc2ccnn2c(O)c1Cc1ccc(C(F)(F)F)cc1 [Example 2, 5-Methyl-6-{[4-(trifluoromethyl)phenyl]methyl}pyrazolo[1,5-a]pyrimidin-7-ol] | 100 to 1000
Oc1c(Cc2ccc(Cl)c(Cl)c2)c(C2CC2)nc2ccnn12 [Example 30, 5-Cyclopropyl-6-[(3,4-dichlorophenyl)-methyl]pyrazolo[1,5-a]pyrimidin-7-ol] | < 10
CCc1nc2ccnn2c(O)c1Cc1cc(F)cc(C(F)(F)F)c1 [Example 4, 5-Ethyl-6-{[3-fluoro-5-(trifluoromethyl)phenyl]methyl}pyrazolo[1,5-a]pyrimidin-7-ol] | < 10
Cc1nc2ccnn2c(O)c1Cc1cccc(F)c1F [Example 7, 6-[(2,3-Difluorophenyl)methyl]-5-methyl-pyrazolo[1,5-a]pyrimidine-7-ol] | 100 to 1000
CCc1nc2ccnn2c(O)c1Cc1ccc(F)c(Cl)c1 [Example 14, 6-[(3-Chloro-4-fluorophenyl)methyl]-5-ethylpyrazolo[1,5-a]pyrimidin-7-ol] | < 10
CC(C)c1nc2ccnn2c(O)c1Cc1cc(Cl)cc(Cl)c1 [Example 42, 6-[(3,5-Dichlorophenyl)methyl]-5-(propan-2-yl)pyrazolo[1,5-a]pyrimidin-7-ol] | < 10
Cc1nc2c(C(=O)N3CCOCC3)cnn2c(O)c1Cc1ccc(C(F)(F)F)cc1 [Example 114] | 100 to 1000
CC(C)OC(=O)c1nc2ccnn2c(O)c1Cc1ccc(Cl)c(F)c1 [Example 88, Propan-2-yl6-[(4-chloro-3-fluorophenyl)methyl]-7-hydroxypyrazolo[1,5-a]pyrimidine-5-carboxylate] | < 10
COC(=O)c1nc2ccnn2c(O)c1Cc1ccc(Cl)c(Cl)c1 [Example 83, Methyl 6-[(3,4-dichlorophenyl)methyl]-7-hydroxypyrazolo[1,5-a]pyrimidine-5-carboxylate] | < 10
Oc1c(Cc2ccc(C(F)(F)F)cc2)c(C2CC2)nc2ccnn12 [Example 23] | < 10
Cc1nc2ccnn2c(O)c1Oc1ccc(Cl)c(Cl)c1 [Example 60, 6-(3,4-Dichlorophenoxy)-5-methyl-pyrazolo[1,5-a]pyrimidin-7-ol] | 10 to 100

Same assay, conditions: at 2 μM

SMILES | inhibition of CCR2 calcium response
O=C1Nc2ccccc2C2(CCN(CCc3ccc(C(F)(F)F)cc3)CC2)O1 [RS102895, reference compound] | full inhibition

Same assay, conditions: reference antagonist; read-out: fKi

SMILES | Ki [nM]
O=C1Nc2ccccc2C2(CCN(CCc3ccc(C(F)(F)F)cc3)CC2)O1 [RS102895, reference compound] | 84

From patent US20130252951A1, “7-HYDROXY-PYRAZOLO[1,5-A] PYRIMIDINE COMPOUNDS AND THEIR USE AS CCR2 RECEPTOR ANTAGONISTS” (Proximagen Limited, priority 2010, published 2013)
